Measurements as given in patent US10538535B2, “Antitumoral compounds” (priority 2017, dated 2020).
Where two headings read alike, the source gives them in different places.

Columns and labels:
H82 tumors = assay: In vivo xenograft, human lung (SCLC) H82
Protocol: Female athymic nu/nu mice (Harlan Laboratories Models, S. L. Barcelona, Spain or Envigo, Spain) were utilized for all experiments. Animal were housed in individually ventilated cages Sealsafe® Plus, Techniplast S.P.A.), up to ten per cage on a 12-hour light-dark cycle at 21-23° C. and 40-60% humidity. Mice were allowed free access to irradiated standard rodent diet (Tecklad 2914C) and sterilized water. Animals were acclimated for at least 5 days prior to tumor implantation with a tumor cell suspension.
H82 cells were grown as a suspension and maintained by addition of fresh medium, as the cell density increases, every 2 to 3 days. Every week, culture was reestablished by centrifugation of the suspension with subsequent resuspension in fresh medium at a concentration of 1×10^5 cell/ml. Animals were subcutaneously implanted (on the right flank using 26 G needle and a 1 cc syringe) at 4-6 weeks of age with 5×10^6 H82 cells, suspended in 0.05 mL of a solution consisting of 50% Matrigel® (Corning Incorporated Life Sciences) and 50% medium without serum or antibiotics.
(§2) Treatment tolerability was assessed by monitoring body weight evolution, clinical signs of systemic toxicity, as well as evidences of local damage in the injection site.
(§3) In xenograft studies with other cell lines: • Tumor volume was calculated using the equation (a·b^2)/2, where a: length (longest diameter) and b: width (shortest diameter) were measured in mm by using digital caliper (Fowler Sylvac, S235PAT).
(§4) Treatments producing >20% lethality and/or 20% net body weight loss were considered toxic.
Tables and figures summarize the data obtained from complete experimental groups, i.e. those groups keeping the initial number of animals, n=8-10.

A549 cells = assay: cells; details: Homo sapiens, A549, 72 h
Outline: (§1)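 SRB read-out after 72 h exposure; fixed untreated plate served as time-zero reference. Compounds ranged 10 to 0.003 μg/mL over ten 2/5 dilutions, triplicate wells, 1% final DMSO, DMEM with 10% FBS. Values via NCI algorithm, four-parameter logistic regression.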

MDA-MB-231 cells = assay: cells; details: Homo sapiens, MDA-MB-231, 72 h
Outline: as §1

HT29 cells = assay: cells; details: Homo sapiens, HT-29, 72 h
Outline: as §1

PSN1 cells = assay: cells; details: Homo sapiens, PSN1, 72 h
Outline: as §1

Protocol for H460 tumors: (§5) Female athymic nu/nu mice (Harlan Laboratories Models, S. L. Barcelona, Spain or Envigo, Spain) were utilized for all experiments. Animal were housed in individually ventilated cages Sealsafe® Plus, Techniplast S.P.A.), up to ten per cage on a 12-hour light-dark cycle at 21-23° C. and 40-60% humidity. […] Animals were acclimated for at least 5 days prior to tumor implantation with a tumor cell suspension.
H460 cells were maintained in vitro at 37° C. with 5% CO2 in Dulbecco's Modified Eagle's Medium (Sigma-Aldrich, Co). Culture cells were passaged every 3 to 5 days upon reaching confluence. Each animal was subcutaneously implanted (on the right flank using 26 G needle and a 1 cc syringe) at 4-6 weeks of age with 5×10^6 H460 cells suspended in 0.05 mL of a solution consisting of 50% Matrigel® (Corning Incorporated Life Sciences) and 50% medium without serum or antibiotics.
as §2, §4
Protocol for HGC27 tumors: as §5
HGC27 cells were maintained in vitro at 37° C. with 5% CO2 in Iscove's Modified Dulbecco's Medium (Sigma Aldrich, Co). Culture cells were passage every 3 to 5 days on reaching confluence. Each animal was subcutaneously implanted (on the right flank using 26 G needle and a 1 cc syringe) at 4-6 weeks of age with 5×10^6 HGC-27 cells suspended in 0.05 mL of a solution consisting of 50% Matrigel® (Corning Incorporated Life Sciences), 50% medium without serum or antibiotics.
as §2, §4
Protocol for MDA-MB-231 tumors: as §5
MDA-MB-231 cells were maintained in vitro at 37° C. with 5% CO2 in Dulbecco's Modified Eagle's Medium (Sigma-Aldrich, Co). Culture cells were passaged every 3 to 5 days upon reaching confluence.
as §2, §3, §4

COc1c(C)cc2c(c1O)[C@@H]1[C@@H]3[C@@H]4SC[C@]5(N[C@@H](C)Cc6c5[nH]c5ccccc65)C(=O)OC[C@@H](c5c6c(c(C)c(OC(C)=O)c54)OCO6)N3[C@@H](O)[C@H](C2)N1C [D]
Median Tumor Volume (MDA-MB-231 tumors; Table 22, Day 0, iv Days 0, 7, 14): 129.5 mm^3
Median Tumor Volume (MDA-MB-231 tumors; Table 22, Day 7, iv Days 0, 7, 14): 147.9 mm^3
Median Tumor Volume (MDA-MB-231 tumors; Table 22, Day 14, iv Days 0, 7, 14): 186.4 mm^3
Median Tumor Volume (MDA-MB-231 tumors; Table 22, Day 21, iv Days 0, 7, 14): 136.5 mm^3
Median Tumor Volume (MDA-MB-231 tumors; Table 22, Day 28, iv Days 0, 7, 14): 290.7 mm^3
Median Tumor Volume (MDA-MB-231 tumors; Table 22, Day 35, iv Days 0, 7, 14): 431.7 mm^3
Median Tumor Volume (MDA-MB-231 tumors; Table 22, Day 42, iv Days 0, 7, 14): 770.1 mm^3
Median Tumor Volume (MDA-MB-231 tumors; Table 22, Day 49, iv Days 0, 7, 14): 970.0 mm^3
Median Tumor Volume (MDA-MB-231 tumors; Table 22, Day 56, iv Days 0, 7, 14): 1461.9 mm^3
Median Tumor Volume (MDA-MB-231 tumors; Table 22, Day 63, iv Days 0, 7, 14): 1526.4 mm^3
Median Tumor Volume (MDA-MB-231 tumors; iv, 0.5 mg/kg, 0 h): 149.6 mm^3
Median Tumor Volume (MDA-MB-231 tumors; iv, 0.5 mg/kg, 48 h): 217.2 mm^3
Median Tumor Volume (MDA-MB-231 tumors; iv, 0.5 mg/kg, 120 h): 284.5 mm^3
Median Tumor Volume (MDA-MB-231 tumors; iv, 0.5 mg/kg, 168 h): 310.0 mm^3
Median Tumor Volume (MDA-MB-231 tumors; iv, 0.5 mg/kg, 336 h): 237.7 mm^3
Median Tumor Volume (MDA-MB-231 tumors; iv, 0.5 mg/kg, 384 h): 261.2 mm^3
Median Tumor Volume (MDA-MB-231 tumors; iv, 0.5 mg/kg, 456 h): 251.3 mm^3
Median Tumor Volume (MDA-MB-231 tumors; iv, 0.5 mg/kg, 504 h): 219.9 mm^3
Median Tumor Volume (MDA-MB-231 tumors; iv, 0.5 mg/kg, 552 h): 221.8 mm^3
Median Tumor Volume (MDA-MB-231 tumors; iv, 0.5 mg/kg, 672 h): 320.3 mm^3
Median Tumor Volume (MDA-MB-231 tumors; iv, 0.5 mg/kg, 720 h): 401.6 mm^3
Median Tumor Volume (MDA-MB-231 tumors; iv, 0.5 mg/kg, 840 h): 629.2 mm^3
Median Tumor Volume (MDA-MB-231 tumors; iv, 0.5 mg/kg, 888 h): 670.7 mm^3
Median Tumor Volume (MDA-MB-231 tumors; iv, 0.5 mg/kg, 960 h): 669.9 mm^3
Median Tumor Volume (MDA-MB-231 tumors; iv, 0.5 mg/kg, 1056 h): 798.1 mm^3
Median Tumor Volume (MDA-MB-231 tumors; iv, 0.5 mg/kg, 1128 h): 857.7 mm^3
Median Tumor Volume (MDA-MB-231 tumors; iv, 0.5 mg/kg, 1176 h): 870.7 mm^3
Median Tumor Volume (MDA-MB-231 tumors; iv, 0.5 mg/kg, 1224 h): 925.8 mm^3
Median Tumor Volume (MDA-MB-231 tumors; iv, 0.5 mg/kg, 1296 h): 1005.4 mm^3
Median Tumor Volume (MDA-MB-231 tumors; iv, 0.5 mg/kg, 1344 h): 1064.2 mm^3
Median Tumor Volume (MDA-MB-231 tumors; iv, 0.5 mg/kg, 1392 h): 1235.6 mm^3
Median Tumor Volume (MDA-MB-231 tumors; iv, 0.5 mg/kg, 1464 h): 1367.8 mm^3
Median Tumor Volume (MDA-MB-231 tumors; iv, 0.5 mg/kg, 1512 h): 1553.7 mm^3
Median Tumor Volume (H82 tumors; Table 33, Day 0.0, iv Days 0, 7, 14, 12-R 0.05 mg/kg, Compound D 0.5 mg/kg): 169.4 mm^3
Median Tumor Volume (H82 tumors; Table 33, Day 2.0, iv Days 0, 7, 14, 12-R 0.05 mg/kg, Compound D 0.5 mg/kg): 340.6 mm^3
Median Tumor Volume (H82 tumors; Table 33, Day 5.0, iv Days 0, 7, 14, 12-R 0.05 mg/kg, Compound D 0.5 mg/kg): 443.3 mm^3
Median Tumor Volume (H82 tumors; Table 33, Day 7.0, iv Days 0, 7, 14, 12-R 0.05 mg/kg, Compound D 0.5 mg/kg): 496.2 mm^3
Median Tumor Volume (H82 tumors; Table 33, Day 9.0, iv Days 0, 7, 14, 12-R 0.05 mg/kg, Compound D 0.5 mg/kg): 614.1 mm^3
Median Tumor Volume (H82 tumors; Table 33, Day 12.0, iv Days 0, 7, 14, 12-R 0.05 mg/kg, Compound D 0.5 mg/kg): 665.5 mm^3
Median Tumor Volume (H82 tumors; Table 33, Day 14.0, iv Days 0, 7, 14, 12-R 0.05 mg/kg, Compound D 0.5 mg/kg): 1041.6 mm^3
Median Tumor Volume (H82 tumors; Table 33, Day 16.0, iv Days 0, 7, 14, 12-R 0.05 mg/kg, Compound D 0.5 mg/kg): 1151.2 mm^3
Median Tumor Volume (H82 tumors; Table 33, Day 19.0, iv Days 0, 7, 14, 12-R 0.05 mg/kg, Compound D 0.5 mg/kg): 1516.7 mm^3
Median Tumor Volume (H82 tumors; Table 33, Day 21.0, iv Days 0, 7, 14, 12-R 0.05 mg/kg, Compound D 0.5 mg/kg): 1748.0 mm^3
Median Tumor Volume (H82 tumors; Table 57, Day 0, iv weekly, 47-R 0.1 mg/Kg, Compound D 0.5 mg/Kg): 169.4 mm^3
Median Tumor Volume (H82 tumors; Table 57, Day 2, iv weekly, 47-R 0.1 mg/Kg, Compound D 0.5 mg/Kg): 340.6 mm^3
Median Tumor Volume (H82 tumors; Table 57, Day 5, iv weekly, 47-R 0.1 mg/Kg, Compound D 0.5 mg/Kg): 443.3 mm^3
Median Tumor Volume (H82 tumors; Table 57, Day 7, iv weekly, 47-R 0.1 mg/Kg, Compound D 0.5 mg/Kg): 496.2 mm^3
Median Tumor Volume (H82 tumors; Table 57, Day 9, iv weekly, 47-R 0.1 mg/Kg, Compound D 0.5 mg/Kg): 614.1 mm^3
Median Tumor Volume (H82 tumors; Table 57, Day 12, iv weekly, 47-R 0.1 mg/Kg, Compound D 0.5 mg/Kg): 665.5 mm^3
Median Tumor Volume (H82 tumors; Table 57, Day 14, iv weekly, 47-R 0.1 mg/Kg, Compound D 0.5 mg/Kg): 1041.6 mm^3
Median Tumor Volume (H82 tumors; Table 57, Day 16, iv weekly, 47-R 0.1 mg/Kg, Compound D 0.5 mg/Kg): 1151.2 mm^3
Median Tumor Volume (H82 tumors; Table 57, Day 19, iv weekly, 47-R 0.1 mg/Kg, Compound D 0.5 mg/Kg): 1516.7 mm^3
Median Tumor Volume (H82 tumors; Table 57, Day 21, iv weekly, 47-R 0.1 mg/Kg, Compound D 0.5 mg/Kg): 1748.0 mm^3
Median Tumor Volume (H460 tumors; Table 24, Day 0, iv Days 0, 7, 14): 203.4 mm^3
Median Tumor Volume (H460 tumors; Table 24, Day 2, iv Days 0, 7, 14): 367.3 mm^3
Median Tumor Volume (H460 tumors; Table 24, Day 7, iv Days 0, 7, 14): 792.0 mm^3
Median Tumor Volume (H460 tumors; Table 24, Day 9, iv Days 0, 7, 14): 854.6 mm^3
Median Tumor Volume (H460 tumors; Table 24, Day 12, iv Days 0, 7, 14): 1026.7 mm^3
Median Tumor Volume (H460 tumors; Table 24, Day 14, iv Days 0, 7, 14): 1175.8 mm^3
Median Tumor Volume (H460 tumors; Table 24, Day 16, iv Days 0, 7, 14): 1322.1 mm^3
Median Tumor Volume (H460 tumors; Table 24, Day 19, iv Days 0, 7, 14): 1581.1 mm^3
Median Tumor Volume (H460 tumors; Table 24, Day 21, iv Days 0, 7, 14): 1789.3 mm^3
Median Tumor Volume (H460 tumors; Table 24, Day 23, iv Days 0, 7, 14): 1966.5 mm^3
Median Tumor Volume (H460 tumors; Table 24, Day 26, iv Days 0, 7, 14): 2080.7 mm^3
Median Tumor Volume (H460 tumors; iv, 0.5 mg/kg, 0 h): 187.2 mm^3
Median Tumor Volume (H460 tumors; iv, 0.5 mg/kg, 48 h): 329.7 mm^3
Median Tumor Volume (H460 tumors; iv, 0.5 mg/kg, 120 h): 559.4 mm^3
Median Tumor Volume (H460 tumors; iv, 0.5 mg/kg, 168 h): 756.5 mm^3
Median Tumor Volume (H460 tumors; iv, 0.5 mg/kg, 336 h): 1626.8 mm^3
Median Tumor Volume (H460 tumors; iv, 0.5 mg/kg, 384 h): 2025.0 mm^3
Median Tumor Volume (HGC27 tumors; Table 28, Day 0, iv Days 0, 7, 14): 157.4 mm^3
Median Tumor Volume (HGC27 tumors; Table 28, Day 2, iv Days 0, 7, 14): 327.6 mm^3
Median Tumor Volume (HGC27 tumors; Table 28, Day 5, iv Days 0, 7, 14): 439.6 mm^3
Median Tumor Volume (HGC27 tumors; Table 28, Day 7, iv Days 0, 7, 14): 418.7 mm^3
Median Tumor Volume (HGC27 tumors; Table 28, Day 9, iv Days 0, 7, 14): 567.9 mm^3
Median Tumor Volume (HGC27 tumors; Table 28, Day 12, iv Days 0, 7, 14): 537.0 mm^3
Median Tumor Volume (HGC27 tumors; Table 28, Day 14, iv Days 0, 7, 14): 654.6 mm^3
Median Tumor Volume (HGC27 tumors; Table 28, Day 16, iv Days 0, 7, 14): 672.4 mm^3
Median Tumor Volume (HGC27 tumors; Table 28, Day 19, iv Days 0, 7, 14): 843.0 mm^3
Median Tumor Volume (HGC27 tumors; Table 28, Day 21, iv Days 0, 7, 14): 842.7 mm^3
Median Tumor Volume (HGC27 tumors; Table 28, Day 23, iv Days 0, 7, 14): 963.7 mm^3
Median Tumor Volume (HGC27 tumors; Table 28, Day 26, iv Days 0, 7, 14): 1203.3 mm^3
Median Tumor Volume (HGC27 tumors; Table 28, Day 28, iv Days 0, 7, 14): 1589.7 mm^3
Median Tumor Volume (HGC27 tumors; Table 28, Day 30, iv Days 0, 7, 14): 1777.6 mm^3
Median Tumor Volume (HGC27 tumors; Table 28, Day 33, iv Days 0, 7, 14): 2146.2 mm^3
Median Tumor Volume (HGC27 tumors; iv, 0.5 mg/kg, 0 h): 194.0 mm^3
Median Tumor Volume (HGC27 tumors; iv, 0.5 mg/kg, 48 h): 324.2 mm^3
Median Tumor Volume (HGC27 tumors; iv, 0.5 mg/kg, 120 h): 561.6 mm^3
Median Tumor Volume (HGC27 tumors; iv, 0.5 mg/kg, 168 h): 504.2 mm^3
Median Tumor Volume (HGC27 tumors; iv, 0.5 mg/kg, 336 h): 1056.8 mm^3
Median Tumor Volume (HGC27 tumors; iv, 0.5 mg/kg, 384 h): 1440.2 mm^3
Median Tumor Volume (HGC27 tumors; iv, 0.5 mg/kg, 456 h): 1717.9 mm^3
Median Tumor Volume (HGC27 tumors; iv, 0.5 mg/kg, 504 h): 2043.4 mm^3
GI50 (A549 cells): 12.5 nM
CC50 (A549 cells; read-out: LC50): > 130 nM
IC (TGI) (A549 cells; read-out: TGI): 28.6 nM
GI50 (MDA-MB-231 cells): 9.88 nM
CC50 (MDA-MB-231 cells; read-out: LC50): 53.3 nM
IC (TGI) (MDA-MB-231 cells; read-out: TGI): 19.5 nM
GI50 (HT29 cells): 10.3 nM
CC50 (HT29 cells; read-out: LC50): > 130 nM
IC (TGI) (HT29 cells; read-out: TGI): 23.4 nM
GI50 (PSN1 cells): 20.8 nM
CC50 (PSN1 cells; read-out: LC50): 24.7 nM
IC (TGI) (PSN1 cells; read-out: TGI): 22.1 nM
